This passage reports EC50 and IC50 results from patent US10316017B2, “COT modulators and methods of use thereof” (Gilead Sciences, Inc., priority 2015, dated 2019).

The structures appear in SMILES notation. pEC50, pIC50: −log10 of the molar value.

The test system of assay [1] is TNFα production in LPS-stimulated human monocytes. The assay can be described thus: Cot Monocyte TNFα Cell Based Assay. The conditions noted are these: Homo sapiens, Monocyte, TNFα in LPS-stimulated human monocytes; read-out: EC50 TNF. Summed up:
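5,000 cells/well; cmpd 1 h, 37 °C, 0.5% DMSO final; LPS 50 pg/ml, 4 h, 37 °C; media TNFα by HTRF sandwich (cryptate/XL665), RT overnight; % control vs unstimulated/stimulated wells.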

Assay [2] addresses T1, human Cot catalytic domain (30-397 amino acids) (Homo sapiens, UniProt P41279).
T1 construct: Purified recombinant human Cot catalytic domain (30-397 amino acids) was purchased from Cama Biosciences; purchased Cama Biosciences (so in the source)
The assay can be described thus: High Throughput Cot Biochemical Assay (KinEASE TR-FRET). The following applies: Cot biochemical HTRF (KinEASE TR-FRET) assay; read-out: IC50 HTRF. Summed up:
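First, purified human Cot (aa 30-397) at 5 nM phosphorylates an XL665-labeled STK3 peptide (1 μM) at 400 μM ATP, pH 7.0, 0.1% DMSO. Then a europium-conjugated phospho-specific antibody binds the product, giving the TR-FRET signal.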
In general terms: TR-FRET usually uses a lanthanide donor and a delayed reading to cut background.

T1 sequence (P41279 30-397): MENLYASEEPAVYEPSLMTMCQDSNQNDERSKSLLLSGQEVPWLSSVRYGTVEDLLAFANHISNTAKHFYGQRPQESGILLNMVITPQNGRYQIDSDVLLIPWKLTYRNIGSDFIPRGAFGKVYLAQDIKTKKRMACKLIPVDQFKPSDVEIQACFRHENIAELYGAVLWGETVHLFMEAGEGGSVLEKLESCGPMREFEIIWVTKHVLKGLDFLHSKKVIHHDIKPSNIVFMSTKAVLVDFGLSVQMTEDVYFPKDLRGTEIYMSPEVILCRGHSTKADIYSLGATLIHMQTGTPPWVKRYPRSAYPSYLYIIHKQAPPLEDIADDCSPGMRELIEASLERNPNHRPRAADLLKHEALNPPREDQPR

By pEC50 is commonly meant the EC50 on a negative log10 scale, so that one unit is a factor of ten. A word on the pIC50: it is −log10 of the IC50, conventionally taken in molar units. Consider `CC[C@@H](Nc1c(C#N)cnc2c(Cl)cc(N[C@@H](c3ccc(Cl)cc3)c3cn(C4CCN(C(C)(C)C)CC4)nn3)cc12)c1ccccc1` [Example 677, 6-(((S)-(1-(1-(tert-butyl)piperidin-4-yl)-1H-1,2,3-triazol-4-yl)(4-chlorophenyl)methyl)amino)-8-chloro-4-(((R)-1-phenylpropyl)amino)quinoline-3-carbonitrile], for which, in assay [1], the pEC50 was 6.09. Moreover, the pIC50 in assay [2] was 8.00.
With `Cc1ccc(CNc2c(C#N)cnc3c(Cl)cc(N[C@@H](c4ccc(Cl)cc4)c4cn(C5CCN(C(C)(C)C)CC5)nn4)cc23)cc1` [Example 678, (S)-6-(((1-(1-(tert-butyl)piperidin-4-yl)-1H-1,2,3-triazol-4-yl)(4-chlorophenyl)methyl)amino)-8-chloro-4-((4-methylbenzyl)amino)quinoline-3-carbonitrile], the negative-log EC50 (pEC50) in assay [1] was 5.25. For the same compound, in assay [2], the pIC50 was 5.84.
Regarding `Cc1cccc(CNc2c(C#N)cnc3c(Cl)cc(N[C@@H](c4ccc(Cl)cc4)c4cn(C5CCN(C(C)(C)C)CC5)nn4)cc23)c1` [Example 679, (S)-6-(((1-(1-(tert-butyl)piperidin-4-yl)-1H-1,2,3-triazol-4-yl)(4-chlorophenyl)methyl)amino)-8-chloro-4-((3-methylbenzyl)amino)quinoline-3-carbonitrile], the pEC50 in assay [1] was 4.90. Moreover, the pIC50 in assay [2] is 6.45.
`Cc1ccccc1CNc1c(C#N)cnc2c(Cl)cc(N[C@@H](c3ccc(Cl)cc3)c3cn(C4CCN(C(C)(C)C)CC4)nn3)cc12` [Example 680, (S)-6-(((1-(1-(tert-butyl)piperidin-4-yl)-1H-1,2,3-triazol-4-yl)(4-chlorophenyl)methyl)amino)-8-chloro-4-((2-methylbenzyl)amino)quinoline-3-carbonitrile]: the negative-log EC50 (pEC50) in assay [1] is 5.17. In assay [2], the negative logarithm of the IC50 (pIC50) is 7.36.
On to `CC(C)(C)N1CCC(n2cc([C@@H](Nc3cc(Cl)c4ncc(C#N)c(NCCCc5ccccc5)c4c3)c3ccc(Cl)cc3)nn2)CC1` [Example 681, (S)-6-(((1-(1-(tert-butyl)piperidin-4-yl)-1H-1,2,3-triazol-4-yl)(4-chlorophenyl)methyl)amino)-8-chloro-4-((3-phenylpropyl)amino)quinoline-3-carbonitrile], for which the negative logarithm of the EC50 (pEC50) in assay [1] is 4.89. Also, the pIC50 in assay [2] is 6.36.
`CC(C)Nc1c(C#N)cnc2c(Cl)cc(N[C@@H](c3ccc(Cl)cc3)c3cn(C4CCN(C(C)(C)C)CC4)nn3)cc12` [Example 682, (S)-6-(((1-(1-(tert-butyl)piperidin-4-yl)-1H-1,2,3-triazol-4-yl)(4-chlorophenyl)methyl)amino)-8-chloro-4-(isopropylamino)quinoline-3-carbonitrile]: the negative-log EC50 (pEC50) in assay [1] is 4.80. Further, the pIC50 in assay [2] was 6.22.
For `CCCCNc1c(C#N)cnc2c(Cl)cc(N[C@@H](c3ccc(Cl)cc3)c3cn(C4CCN(C(C)(C)C)CC4)nn3)cc12` [Example 683, (S)-6-(((1-(1-(tert-butyl)piperidin-4-yl)-1H-1,2,3-triazol-4-yl)(4-chlorophenyl)methyl)amino)-4-(butylamino)-8-chloroquinoline-3-carbonitrile] the same measures were 5.14 and 6.78.
Consider `CN(C)Cc1ccc(Nc2c(C#N)cnc3c(Cl)cc(N[C@@H](c4ccc(Cl)cc4)c4cn(C5CCN(C(C)(C)C)CC5)nn4)cc23)cc1` [Example 684, (S)-6-(((1-(1-(tert-butyl)piperidin-4-yl)-1H-1,2,3-triazol-4-yl)(4-chlorophenyl)methyl)amino)-8-chloro-4-((4-((dimethylamino)methyl)phenyl)amino)quinoline-3-carbonitrile], for which the pEC50 in assay [1] is 5.22. Also, the pIC50 in assay [2] is 5.13.
Regarding `N#Cc1cnc2c(Cl)cc(N[C@@H](c3ccccc3)c3cn([C@@H]4CCNC[C@@H]4F)nn3)cc2c1Nc1ccc(F)c(Cl)c1` [Example 685, 8-chloro-4-((3-chloro-4-fluorophenyl)amino)-6-(((S)-(1-((3S,4R)-3-fluoropiperidin-4-yl)-1H-1,2,3-triazol-4-yl)(phenyl)methyl)amino) quinoline-3-carbonitrile], the pEC50 in assay [1] is 6.44. For the same compound, in assay [2], the negative-log IC50 (pIC50) is 7.80.
For `CC(C)(C)N1CCC(n2cc([C@@H](Nc3cc(Cl)c4ncc(C#N)c(Nc5ccc6c(cnn6Cc6ccccc6)c5)c4c3)c3ccc(Cl)cc3)nn2)CC1` [Example 686, (S)-4-((1-benzyl-1H-indazol-5-yl)amino)-6-(((1-(1-(tert-butyl)piperidin-4-yl)-1H-1,2,3-triazol-4-yl)(4-chlorophenyl)methyl)amino)-8-chloroquinoline-3-carbonitrile], the pEC50 in assay [1] was 5.23. Besides, the pIC50 in assay [2] is 5.14.
For `Cc1c(Cl)cccc1Nc1c(C#N)cnc2c(Cl)cc(N[C@@H](c3ccc(Cl)cc3)c3cn(C4CCN(C(C)(C)C)CC4)nn3)cc12` [Example 687, (S)-6-(((1-(1-(tert-butyl)piperidin-4-yl)-1H-1,2,3-triazol-4-yl)(4-chlorophenyl)methyl)amino)-8-chloro-4-((3-chloro-2-methylphenyl)amino)quinoline-3-carbonitrile] the same measures were 5.55 and 7.40.
Regarding `N#Cc1cnc2c(Cl)cc(N[C@@H](c3ccc(Cl)cc3)c3c[nH]nn3)cc2c1Nc1ccc(Cl)c(Cl)c1` [Example 688, (S)-8-chloro-6-(((4-chlorophenyl)(1H-1,2,3-triazol-4-yl)methyl)amino)-4-((3,4-dichlorophenyl)amino)quinoline-3-carbonitrile], the pEC50 in assay [1] was 5.90. In addition, the negative-log IC50 (pIC50) in assay [2] was 6.21.
In the same order, the values of `CC(C)(C)N1CCC(n2cc([C@@H](Nc3cc(C#N)c4ncc(C#N)c(Nc5ccc(F)c(Cl)c5)c4c3)c3ccc(Cl)cc3)nn2)CC1` [Example 689, (S)-6-(((1-(1-(tert-butyl)piperidin-4-yl)-1H-1,2,3-triazol-4-yl)(4-chlorophenyl)methyl)amino)-4-((3-chloro-4-fluorophenyl)amino)quinoline-3,8-dicarbonitrile] are 6.46 and 7.96.
Take `CNC(=O)c1cccc([C@H](Nc2cc(Cl)c3ncc(C#N)c(Nc4ccc(F)c(Cl)c4)c3c2)c2cn(C3CCN(C(C)(C)C)CC3)nn2)c1` [Example 690, (S)-3-((1-(1-(tert-butyl)piperidin-4-yl)-1H-1,2,3-triazol-4-yl)((8-chloro-4-((3-chloro-4-fluorophenyl)amino)-3-cyanoquinolin-6-yl)amino)methyl)-N-methylbenzamide]: the pEC50 in assay [1] was 6.50. In addition, the negative-log IC50 (pIC50) in assay [2] was 8.70.
Regarding `CC(C)(C)N1CCC(n2cc([C@@H](Nc3cc(Cl)c4ncc(C#N)c(Nc5ccc(F)c(Cl)c5)c4c3)c3cccc(C(=O)N4CCCC4)c3)nn2)CC1` [Example 691, (S)-6-(((1-(1-(tert-butyl)piperidin-4-yl)-1H-1,2,3-triazol-4-yl)(3-(pyrrolidine-1-carbonyl)phenyl)methyl)amino)-8-chloro-4-((3-chloro-4-fluorophenyl)amino)quinoline-3-carbonitrile], in assay [1], the pEC50 was 7.05. Further, the pIC50 in assay [2] was 8.70.
`CC(C)(C)N1CCC(n2cc([C@@H](Nc3cc(Cl)c4ncc(C#N)c(Nc5cncc(Cl)c5)c4c3)c3ccc(Cl)cc3)nn2)CC1` [Example 692, (S)-6-(((1-(1-(tert-butyl)piperidin-4-yl)-1H-1,2,3-triazol-4-yl)(4-chlorophenyl)methyl)amino)-8-chloro-4-((5-chloropyridin-3-yl)amino)quinoline-3-carbonitrile]: in assay [1], the pEC50 was 6.10. Moreover, the pIC50 in assay [2] was 7.29.
